Experimental data reported in PMC11858841, “Intravenous Nanoemulsions Loaded with Phospholipid Complex of a Novel Pyrazoloquinolinone Ligand for Enhanced Brain Delivery” (Pharmaceutics, 2025).
Values after ≈ are worked out from the molar mass of the structure shown.

Experiments:
[1] = In vitro permeation through iPSC-derived blood–brain barrier model; type: in vitro ADME, human; conditions: inserts without cells; read-out: recovery of CW-02-79 without cells
From the text: The in vitro BBB model based on the co-culture of iPSC-derived brain microvascular endothelial cells, astrocytes, and pericytes was used to estimate the transport of CW-02-79 into the brain from the developed nanoemulsions (the protocol used is available on the manufacturer’s website: iCell Blood Brain Barrier Isogenic Kit protocol, FujiFilm Cellular Dynamic Inc., Madison, WI, USA) [24]. Cell culture inserts for BBB co-cultures (pore size 0.4 µm, effective cell growth area 0.33 cm^2, Falcon®, Corning Inc., Salt Lake City, UT, USA) were coated on the apical side with a fibronectin-collagen IV matrix and on the basolateral side with a 0.1% gelatin solution. Then, astrocyte and pericyte suspensions were seeded on the basolateral side, with brain microvascular endothelial cells in the apical region of inserts, followed by overnight incubation at 37 °C and 5% CO2. […]
The total volume on the basolateral side was compensated with 100 µL of the fresh termostated medium. […] The mass balance (%) was also determined based on the amount of CW-02-79 determined in both the apical and basolateral compartments at the end of the assay divided by the total amount of CW-02-79 placed in the apical compartment to assess the potential adsorption to plastic or non-specific binding to cells.

[2] = biological target: dopamine transporter; set-up: method as in PDSP Ki database https://pdspdb.unc.edu/databases/kidb.php; conditions: ref PDSP Ki database https://pdspdb.unc.edu/databases/kidb.php; cited from earlier work
[3] = biological target: σ2 receptors; set-up: method as in PDSP Ki database https://pdspdb.unc.edu/databases/kidb.php; conditions: ref PDSP Ki database https://pdspdb.unc.edu/databases/kidb.php; cited from earlier work
[4] = biological target: histamine H2 receptor; set-up: method as in PDSP Ki database https://pdspdb.unc.edu/databases/kidb.php; conditions: ref PDSP Ki database https://pdspdb.unc.edu/databases/kidb.php; cited from earlier work
[5] = set-up: method as in unpublished data, MM Savić and B Divović Matović; conditions: doses 1 to 30 mg/kg; ref unpublished data, MM Savić and B Divović Matović; cited from earlier work
[6] = system: GABAA receptors that contain any of the α1 to α6 subunits; set-up: method as in personal communication with Dr. Janet Fisher; conditions: 10 µM; ref personal communication with Dr. Janet Fisher; cited from earlier work
[7] = system: σ2 receptors; assay: PDSP binding study, σ2 receptors; conditions: versus the other four hits of the primary screen
[8] = Solubility, shake-flask method; type: physicochemical; conditions: thermodynamic from solid
Protocol: The solubility of CW-02-79 in selected oils, organic solvents, and water solutions of various pH values was examined by using the shake-flask method, by adding an excess amount of CW-02-79. The blends were mixed on a vortex mixer for 24 h at 25 ± 2 °C to reach equilibrium. The samples were centrifuged (1000× g, 10 min, 25 °C) on a MiniSpin® plus centrifuge (Eppendorf, Hamburg, Germany). The concentration of CW-02-79 was determined after proper dilution of the supernatant with isopropanol using the LC-MS/MS method.
The concentration of CW-02-79 was determined using a LC-MS/MS method. The analysis was performed on a UHPLC chromatograph ACELLA (Thermo Fisher Scientific Inc., Madison, WI, USA), coupled to a triple quadrupole mass spectrometer TSQ Quantum Access MAX (Thermo Fisher Scientific Inc., Madison, WI, USA) with a heated electrospray ionization (HESI) interface. The column was XTerra MS C18 (150 mm × 2.1 mm, […] particle size). The mobile phase was acetonitrile/0.1% formic acid = 70:30 (v/v), the flow rate was 0.2 mL min^−1, the column temperature was set to 35 °C, and the injection volume was 10 µL. CW-02-79 and the internal standard were detected and quantified in the positive HESI mode (m/z = 389.90–345.90 and m/z = 349.00–304.11, respectively).

[9] = biological target: 5-HT7 receptor; set-up: method as in PDSP Ki database https://pdspdb.unc.edu/databases/kidb.php; conditions: ref PDSP Ki database https://pdspdb.unc.edu/databases/kidb.php; cited from earlier work
[10] = biological target: benzodiazepine binding site at GABAA receptors; set-up: method as in PDSP Ki database https://pdspdb.unc.edu/databases/kidb.php; conditions: ref PDSP Ki database https://pdspdb.unc.edu/databases/kidb.php; cited from earlier work

COc1ccc2c3nn(-c4ccc(OC(F)(F)F)cc4)c(=O)c-3c[nH]c2c1C [CW-02-79, 7-methoxy-6-methyl-2-(4-(trifluoromethoxy)phenyl)-2,5-dihydro-3H-pyrazolo [4,3-c]quinolin-3-one]
recovery at 24 h, 3 µM [1]: ~100%
Ki [2]: > 10 µM
Ki [3]: 0.112 µM
Ki [4]: 5.2 µM
signs of sedation or motor incapacitation [5]: no signs of sedation or motor incapacitation
modulation of GABAA receptors [6]: does not at all modulate
selectivity for σ2 receptors [7]: ≥ 20 fold
solubility at 24 h ([8]; aqueous buffer, Phosphate buffer, pH 7.4, 25 °C): 11.8 ± 0.7 µg/mL (≈ 30.3 µM)
solubility at 24 h ([8]; oil or lipid, Castor oil, 25 °C): 27.96 ± 0.03 µg/mL (≈ 71.8 µM)
solubility at 24 h ([8]; oil or lipid, Fish oil, 25 °C): 34.19 ± 0.06 µg/mL (≈ 87.8 µM)
solubility at 24 h ([8]; oil or lipid, MCT, 25 °C): 49.93 ± 0.07 µg/mL (≈ 128 µM)
solubility at 24 h ([8]; oil or lipid, MCT:castor oil (1:1, w/w), 25 °C): 218.4 ± 0.3 µg/mL (≈ 561 µM)
solubility at 24 h ([8]; oil or lipid, MCT:soybean oil (1:1, w/w), 25 °C): 41.41 ± 0.04 µg/mL (≈ 106 µM)
solubility at 24 h ([8]; oil or lipid, Soybean oil, 25 °C): 65.68 ± 0.43 µg/mL (≈ 169 µM)
solubility at 24 h ([8]; organic solvent or mixture, DMSO, 25 °C): > 30000 µg/mL
solubility at 24 h ([8]; organic solvent or mixture, Isopropanol, 25 °C): 5750 µg/mL (≈ 14800 µM)
solubility at 24 h ([8]; organic solvent or mixture, Methanol, 25 °C): 939.1 ± 3.53 µg/mL (≈ 2410 µM)
solubility at 24 h ([8]; simulated gastric fluid, 0.1M HCl, 25 °C): 12.3 ± 0.61 µg/mL (≈ 31.7 µM)
solubility at 24 h ([8]; Ultrapure water, 25 °C): 11.8 ± 0.2 µg/mL (≈ 30.2 µM)
Ki [9]: 2.4 µM
Ki [10]: 4.7 µM
